Series [1] in a line: Acute toxicity, DL50 (mice), ip. Conditions: for LD50: mouse, in vivo.
Series [2] in a line: Antiulcer activity in the rat (immobilization, method of Rossi et al.). Conditions: po, rats, os, 30 minutes before 4 hours immobilization, dose which protects 30% of the animals from ulcers, Table 3, read-out: Antiulcer activity DE30 (rats). In kind it is in vivo. The procedure:
(b) Antiulcer activity in the rat The method described by Rossi et al. (Comp.Rend.Soc.Biol., 150, 2124, 1956) was followed: 30 minutes after the oral treatment with the drugs under study, the animals, kept on an empty stomach for 48 hours, were immobilized for a period of 4 hours. At the end of this time, the presence of ulcers is checked after killing the animals by ether. The calculated ED30 represents the dose which protects 30% of the animals from ulcers.

The test system of series [3] is plasmatic cholesterol. Nature of the series: Hypocholesterolemic activity: determination of plasmatic cholesterol in rats treated orally. The class given is in vivo. Conditions: Rattus norvegicus, po, 96 h, os, five treatments in 4 days, dose which reduces by 30% the content of plasmatic cholesterol, Table 1, read-out: Hypocholesterolemic activity, DE30 (rats). The protocol:
It has been evaluated orally in rats treated five times in 4 days (once daily during the first three days, twice daily on the fourth day) with the drugs under study. The animals, kept on an empty stomach, were killed on the fifth day, 18 hours after the last treatment. The following tests were carried out: The technique described by J. P. Blomhoff (Clin.Chim.Acta, 43,247, 1973) for the gas-chromatographic determination of total cholesterol was followed. 0,5 ml of the animal serum are hydrolysed at 50° C. for 1 hour with 5 ml of 2% alcoholic KOH. Cholesterol is extracted with 2% petroleum ether at 60°-80° C. and the gas-chromatographic analysis is carried out on the extract with cholesterol acetate as internal standard. The plasmatic cholesterol concentration of the treated animals is evaluated by comparing it with that of the controls. The calculated ED30 represents the dose which reduces by 30% the content of plasmatic cholesterol.

Series [4] relates to plasmatic triglycerides. Nature of the series: Hypotriglyceremic activity: determination of plasmatic triglycerides in rats treated orally. The class given is in vivo. Conditions: Rattus norvegicus, po, 96 h, os, five treatments in 4 days, dose which reduces by 30% the content of plasmatic triglycerides, Table 2, read-out: Hypotriglyceremic activity DE30 (rats). The protocol: It has been evaluated orally in rats treated five times in 4 days (once daily during the first three days, twice daily on the fourth day) with the drugs under study. The animals, kept on an empty stomach, were killed on the fifth day, 18 hours after the last treatment. The following tests were carried out: The technique of […].,44, 267, 1966) is used; it consists in determining, by enzymatic route, the total glycerol made free by hydrolysis of the seric neutral fats. In particular, the "Biochemia Test Combination" (Boehringer Mannheim GMBH) was used. In this case, too, the seric concentration of triglycerides in the treated animals was compared with that in the controls. The calculated ED30 represents the dose which reduces by 30% the content of plasmatic triglycerides.

Counter-ions that a name gives are not always drawn.

On to `CN1CCN(CCc2oc(=O)oc2-c2ccc(F)cc2)CC1.Cl.Cl` [Compound 4, 4-(4-fluorophenyl)-5-[2-(4-methyl-1-piperazinyl)ethyl]-1,3-dioxol-2-one dihydrochloride], for which the 50% lethal dose (LD50) in series [1] came to 300 mg/kg. In addition, in series [2], the ED30 is 20 mg/kg.

For the molecule `Cl.O=c1oc(CCCN2CCN(c3ccccc3)CC2)c(-c2ccc(F)cc2)o1` [Compound 20, 4-(4-fluorophenyl)-5-[3-(4-phenyl-1-piperazinyl)propyl]-1,3-dioxol-2-one hydrochloride], the “Acute toxicity DL50 (mice)” value in series [1] (Table 2) is reported as over 500 mg/kg. In series [1], this molecule registered a median lethal dose (LD50) of over 500 mg/kg. Further, the values for the ED30 in series [3] and in series [4] were 30 mg/kg and 15 mg/kg, respectively.

In series [1], `Cl.O=c1oc(CCN2CCC3(CCCCC3)CC2)c(-c2ccc(F)cc2)o1` [Compound 17, 4-(4-fluorophenyl)-5-[2-(3-azaspiro[5,5]undecan-3-yl)ethyl]-1,3-dioxol-2-one hydrochloride] displayed a 50% lethal dose (LD50) of 190 mg/kg. Further, in series [4], the ED30 amounted to 30 mg/kg.

For `Cc1ccc(-c2oc(=O)oc2CCN2CCN(c3ccccc3)CC2)cc1.Cl` [Compound 9, 4-(4-tolyl)-5-[2-(4-phenyl-1-piperazinyl)ethyl]-1,3-dioxol-2-one hydrochloride], the “Acute toxicity DL50 (mice)” value in series [1] (Table 1) and in series [1] (Table 2) was over 1000 mg/kg throughout. This molecule gave an LD50 in series [1] of over 1000 mg/kg. Further, the figures for the ED30 in series [2], in series [3] and in series [4] were 10 mg/kg, 15 mg/kg and 100 mg/kg, respectively.

The molecule `CSc1ccc(-c2oc(=O)oc2CCN2CCN(c3ccccc3)CC2)cc1.Cl.Cl` [Compound 16, 4-(4-methylthiophenyl)-5-[2-(4-phenyl-1-piperazinyl)ethyl]-1,3-dioxol-2-one dihydrochloride] returned a 50% lethal dose (LD50) in series [1] of over 1000 mg/kg. Moreover, the ED30 in series [4] came to 100 mg/kg.

In the case of `Cl.Cl.O=c1oc(CCN2CCN(c3ccccc3)CC2)c(-c2ccc(Cl)cc2)o1` [Compound 7, 4-(4-chlorophenyl)-5-[2-(4-phenyl-1-piperazinyl)ethyl]-1,3-dioxol-2-one dihydrochloride], in series [1], the 50% lethal dose (LD50) was found to be 650 mg/kg. In addition, the ED30 in series [2] amounted to 80 mg/kg; in series [3], 6 mg/kg; in series [4], 30 mg/kg.

Consider `O=c1oc(CCN2CCN(c3ccccc3)CC2)c(-c2ccc3ccccc3c2)o1` [Compound 14, 4-(2-naphtyl)-5-[2-(4-phenyl-1-piperazinyl)ethyl]-1,3-dioxol-2-one hydrochloride], for which the median lethal dose (LD50) in series [1] was 830 mg/kg. Moreover, the results for the ED30 in series [3] and in series [4] were 20 mg/kg and 100 mg/kg, respectively.

`Cl.O=c1oc(CCN2CCN(C(c3ccccc3)c3ccccc3)CC2)c(-c2ccc(Cl)cc2)o1` [Compound 23, 4-(4-chlorophenyl)-5-[2-(4-benzhydryl-1-piperazinyl)ethyl]-1,3-dioxol-2-one hydrochloride] showed an LD50 in series [1] of over 1000 mg/kg. In addition, the ED30 in series [4] was 100 mg/kg.

In the case of `Cl.O=c1oc(CCN2CCN(c3cc(Cl)cc(Cl)c3)CC2)c(-c2ccc(F)cc2)o1` [Compound 10, 4-(4-fluorophenyl)-5-[2-(4-(3,5-dichlorophenyl)-1-piperazinyl)ethyl]-1,3-dioxol-2-one hydrochloride], the “Acute toxicity DL50 (mice)” value in series [1] (Table 2) was over 1000 mg/kg. Moreover, in series [1], the 50% lethal dose (LD50) was over 1000 mg/kg. Further, the values for the ED30 in series [2] and in series [4] were 50 mg/kg and 100 mg/kg, respectively.

In series [1], `Cl.Cl.O=c1oc(CCN2CCN(c3ccccn3)CC2)c(-c2ccc(F)cc2)o1` [Compound 3, 4-(4-fluorophenyl)-5-[2-(4-(2-pyridyl)-1-piperazinyl)ethyl]-1,3-dioxol-2-one dihydrochloride] registered an LD50 of 350 mg/kg. Besides, in series [3], the ED30 worked out at 25 mg/kg.

In series [1], `CN(CCc1ccccc1)CCc1oc(=O)oc1-c1ccc(F)cc1.Cl` [Compound 2, 4-(4-fluorophenyl)-5-[2-(N-methyl-N-2-phenylethylamino)ethyl]-1,3-dioxol-2-one hydrochloride] yielded an LD50 of 175 mg/kg. For the same molecule, the ED30 in series [2] stood at 15 mg/kg.

`O=c1oc(CCN2CCN(c3ccc(Cl)cc3)CC2)c(-c2ccc(Cl)cc2)o1` [Compound 21, 4-(4-chlorophenyl)-5-[2-(4-chlorophenyl)-1-piperazinyl)ethyl]-1,3-dioxol-2-one hydrochloride] returned an LD50 in series [1] of over 1000 mg/kg. Moreover, the ED30 in series [4] worked out at 100 mg/kg.

Molecule `Cl.Cl.O=c1oc(CCN2CCN(C(c3ccccc3)c3ccc(Cl)cc3)CC2)c(-c2ccc(Cl)cc2)o1` (stereo not shown) [Compound 18, 4-(4-chlorophenyl)-5-[2-(4-(4-chlorobenzhydryl)-1-piperazinyl)ethyl]-1,3-dioxol-2-one dihydrochloride] gave an LD50 in series [1] of over 1000 mg/kg. In addition, in series [4], the ED30 came to 20 mg/kg.

In the case of `CC1CN(CCc2oc(=O)oc2-c2ccc(F)cc2)CCN1c1ccc(Cl)cc1.Cl.Cl` (stereo not shown) [Compound 11, 4-(4-fluorophenyl)-5-[2-(4-(4-chlorophenyl)-3-methyl-1-piperazinyl)ethyl]-1,3-dioxol-2-one dihydrochloride], the LD50 in series [1] came out at 1000 mg/kg. The results for the ED30 in series [2] and in series [4] were 100 mg/kg and 30 mg/kg, respectively.

Regarding `Cl.O=c1oc(CCN2CCN(c3ccc(Cl)c(Cl)c3)CC2)c(-c2ccc(F)cc2)o1` [Compound 13, 4-(4-fluorophenyl)-5-[2-(4-(3,4-dichlorophenyl)-1-piperazinyl)ethyl]-1,3-dioxol-2-one hydrochloride], the “Acute toxicity DL50 (mice)” value in series [1] (Table 2) and in series [1] (Table 3) was 600 mg/kg each time. The ED30 in series [2] was 100 mg/kg; in series [4], 25 mg/kg.

On to `Cl.Cl.O=c1oc(CCN2CCN(c3ccccc3)CC2)c(-c2ccccc2)o1` [Compound 6, 4-phenyl-5-[2-(4-phenyl-1-piperazinyl)ethyl]-1,3-dioxol-2-one dihydrochloride], for which the LD50 in series [1] turned out to be 500 mg/kg. In addition, the ED30 in series [2] is 20 mg/kg; in series [3], 20 mg/kg; in series [4], 30 mg/kg.

In series [1], `O=c1oc(CCN2CCC(c3ccccc3)CC2)c(-c2ccc(Cl)cc2)o1` [Compound 22, 4-(4-chlorophenyl)-5-[2-(4-phenyl)-1-piperidinyl)ethyl]-1,3-dioxol-2-one hydrochloride] yielded an LD50 of 750 mg/kg. Further, in series [4], the ED30 stood at 50 mg/kg.

For the molecule `O=C(O)/C=C\C(=O)O.O=c1oc(CCN2CCN(c3ncccn3)CC2)c(-c2ccc(Cl)cc2)o1` [Compound 19, 4-(4-chlorophenyl)-5-[2-(4-(2-pyrimidinyl)-1-piperazinyl)ethyl]-1,3-dioxol-2-one maleate], the LD50 in series [1] was 375 mg/kg. Also, the ED30 in series [3] was 30 mg/kg.

With `O=c1oc(CCN2CCOCC2)c(-c2ccc(F)cc2)o1` [Compound 8, 4-(4-fluorophenyl)-5-[2-(1-morpholinyl)ethyl]-1,3-dioxol-2-one hydrochloride], the LD50 in series [1] is over 1000 mg/kg. For the same molecule, the ED30 in series [2] is 30 mg/kg.

In series [1], `Cl.Cl.O=c1oc(CCN2CCN(c3ccccc3)CC2)c(-c2ccc(F)cc2)o1` [Compound 1, 4-(4-fluorophenyl)-5-[2-(4-phenyl-1-piperazinyl)ethyl]-1,3-dioxol-2-one dihydrochloride] registered a 50% lethal dose (LD50) of 420 mg/kg. The ED30 in series [2] stood at 10 mg/kg; in series [3], 10 mg/kg; in series [4] it was 50 mg/kg.

For `COc1ccc(-c2oc(=O)oc2CCN2CCN(c3ccccc3)CC2)cc1.Cl.Cl` [Compound 15, 4-(4-methoxyphenyl)-5-[2-(4-phenyl-1-piperazinyl)ethyl]-1,3-dioxol-2-one dihydrochloride], in series [1], the LD50 was over 1000 mg/kg. Further, the ED30 in series [4] stood at 20 mg/kg.

For `Cl.O=c1oc(CCN2CCN(c3cc(Cl)ccc3Cl)CC2)c(-c2ccc(F)cc2)o1` [Compound 12, 4-(4-fluorophenyl)-5-[2-(4-(2,5-dichlorophenyl)-1-piperazinyl)ethyl]-1,3-dioxol-2-one hydrochloride], in series [1] (Table 2), the “Acute toxicity DL50 (mice)” value is 1000 mg/kg. In addition, the ED30 in series [4] stood at 30 mg/kg.

In turn, `COc1ccccc1N1CCN(CCc2oc(=O)oc2-c2ccc(F)cc2)CC1.Cl.Cl` [Compound 5, 4-(4-fluorophenyl)-5-[2-(4-(2-methoxyphenyl)-1-piperazinyl)ethyl]-1,3-dioxol-2-one dihydrochloride] yielded a median lethal dose (LD50) in series [1] of 350 mg/kg. Besides, in series [2], the ED30 was determined as 30 mg/kg.

Values taken from patent publication US4235904A, “4-Aryl-5-piperazinoalkyl-1,3-dioxol-2-ones, and compositions” (Instituto Luso Farmaco d'Italia S.p.A., priority 1978, dated 1980).
